# Experimental data taken from article PMC6849638 (2019).
# Tests used:
# Assay in all cases: luminescence titration
# Details in all cases: Na+ 100 mM; 20 mM Tris-HCl, pH 7.5, 298 K; apparent
# [1] = system: A2T2 (DNA, hairpin) GGCGAATTCAGCTTTTTGCTGAATTCGCC
# [2] = system: A2T3 (DNA, hairpin) GGCGAATTTCGCTTTTTGCGAAATTCGCC
# [3] = system: A3T3 (DNA, hairpin) GGCAAATTTCAGTTTTTCTGAAATTTGCC
# [4] = system: G2C3 (DNA, hairpin) GGCAGGCCCAGCTTTTTGCTGGGCCTGCC
SMILES,KD [1],KD [2],KD [3],KD [4]
N=C(N)c1ccc(NCc2ccnc(-c3cc(CNc4ccc(C(=N)N)cc4)ccn3)c2)cc1.[Ir+3].[c-]1ccccc1-c1ccccn1.[c-]1ccccc1-c1ccccn1 [Δ-4Ir],0.27 (0.09) μM,0.49 (0.03) μM,1.01 (0.12) μM,1.44 (0.09) μM
N=C(N)c1ccc(NCc2ccnc(-c3cc(CNc4ccc(C(=N)N)cc4)ccn3)c2)cc1.[Ir+3].[c-]1ccccc1-c1ccccn1.[c-]1ccccc1-c1ccccn1 [Λ-4Ir],1.15 (0.13) μM,0.62 (0.04) μM,0.47 (0.03) μM,0.70 (0.05) μM
